{"source": "patent US20040091935A1", "about": "“Strains of Mycoplasma hyorhinis as causative agent for systemic sclerosis” (priority 2002, published 2004)", "tested_on": "Mycoplasma hyorhinis", "test": "Plaque assay of the infectious agent on Vero cell monolayers with antibiotics", "type": "cell-based", "details": "ciprofloxacin 0.5 mg/ml, doxicycline 1 mg/ml, antibiotic added for 24 hours or 7 days, assay sensitivity 10 pfu/ml, FIG. 12", "note": "Entries after “also recorded” stand apart in the source; their conditions may differ. Starred links: 1 amine or outer side, 2 acyl side, 3 side chain; linkers in the order of their positions; H or OH if unused. Positions of bridges follow the written chain, without caps; N, C: chain ends. Non-standard residues stand in square brackets, D forms with d. Residues, ends and D or L forms follow the SMILES beside them. Chains are numbered I, II in the order given. Actinocin(9to1) = Cc1c2oc3c(C)ccc(C(=O)[*:1])c3nc-2c(C(=O)[*:2])c(N)c1=O; NMeV = CN[C@H](C(=O)O)C(C)C; Sar = CNCC(=O)O", "data": [{"smiles": "Cc1c2oc3c(C)ccc(C(=O)N[C@@H]4C(=O)N[C@H](C(C)C)C(=O)N5CCC[C@H]5C(=O)N(C)CC(=O)N(C)[C@@H](C(C)C)C(=O)O[C@@H]4C)c3nc-2c(C(=O)N[C@@H]2C(=O)N[C@H](C(C)C)C(=O)N3CCC[C@H]3C(=O)N(C)CC(=O)N(C)[C@@H](C(C)C)C(=O)O[C@@H]2C)c(N)c1=O", "note": "[actinomycin D] (I: T[dV]P[Sar][NMeV] / II: T[dV]P[Sar][NMeV]; ester I:1-I:C, II:1-II:C; linker I:N-II:N via Actinocin(9to1))", "values": [{"measurement": "Plaque formation induced by the infectious agent", "result": "prevented plaque formation"}]}, {"smiles": "C[C@H]1c2cccc(O)c2C(O)=C2C(=O)[C@]3(O)C(O)=C(C(N)=O)C(=O)[C@@H](N(C)C)[C@@H]3[C@@H](O)[C@@H]21", "note": "[doxicyclin]", "values": [{"measurement": "Plaque formation induced by the infectious agent", "result": "prevented plaque formation; also recorded: inhibited"}]}]}
